What was measured:
HL-60 cells [1] = assay: Cell surface sialyl-Lewis-X (CD15s) by anti-CD15s (CSLEX1) flow cytometry; type: cell-based, human; settings: 50 μM, 24 h
Procedure: Effect of ManNAc analogues on the expression of sialyl-Lewis-X and Lewis-X: HL-60 cells (3.0×10^5 cells/mL in 2.0 mL complete medium in 6 well plate) were treated with D (vehicle), 1a, 1b, 1c, 1d, 1e, 1f, or 1g (50 PM), along with untreated (U) control. After 24 h, cells were harvested and washed with PBS (3×0.5 mL, 3000×g, 3.0 min at room temperature). Prior to last wash, cells were counted using Z2 coulter counter and aliquoted at 2.5×10^5 cells per sample and stained with either mouse anti-human CD15s (CSLEX1) (1.25 μg/mL) or mouse anti-human CD15 (HI98) (2.5 μg/mL) in HEPES/CaCl2) buffer (30 mM HEPES, 110 mM NaCl, 10 mM KCl, 2 mM MgCl2, 10 mM glucose, 1.5 mM CaCl2) containing 0.1% bovine serum albumin, pH 7.3) (total volume of 100 μL) for 30 min at 4° C. Cells were washed with HEPES/CaCl2 buffer (2×0.5 mL) and stained with AlexaFluor488-conjugated anti-mouse IgM (2.5 μg/mL) (for both CD15s and CD15) in 100 μL HEPES/CaCl2 for 30 min at 4° C. Cells were washed with HEPES/CaCl2 buffer (2×0.5 mL), resuspended in PBS (0.2 mL), treated with PI (2.5 μg/ml) and analysed by BD FACSVerse. Samples treated with (i) isotype antibodies followed by secondary antibody and (ii) secondary antibody alone were prepared as controls. Single Cells were gated for PI-negative population for 10,000 events and analysed by flow cytometry. Two replicate samples were prepared for each condition and each sample was counted twice. Three independent experiments were performed. Data was analysed using FlowJo V10. For plotting graph and calculation of significant probability ‘p’ values, two-way ANOVA with Dunnett's multiple comparison tests was employed in GraphPad Prism 8.
Time course of CD15s expression: HL-60 cells (3.0×10^5 cells/mL in 2.5 mL complete medium in 6-well plates) were incubated with D, 1a, 1b, or 1d (50 mM). At each time point, from day 1 to day 6, the cells were harvested from the entire contents of the well, washed, and aliquoted to 5.0×10^5 cells per sample, and immuno-stained using anti-CD15s (CSLEX1) antibody as mentioned above. On day 3, 4, and 5 complete media (1.0 mL) was added to each remaining well in order to compensate for media exhaustion. No contents were removed from the well during the period.

HL-60 cells [2] = assay: Far-western blot of total lysates with biotinylated SNA; type: cell-based, human; settings: HL-60 lysates; 50 μM, 72 h
Procedure: After 72 h, cells were harvested and lyzed in RIPA buffer containing PIC. Protein concentration in the soluble fraction was estimated using Bradford assay, subjected to 10% SDS-PAGE, blotted onto nitrocellulose membranes (constant current 250 mA, 3 h, 4° C.). Membranes were blocked using 2% w/v gelatin (5.0 mL) in 0.1% PBS-T at room temperature. After 1h, membranes were incubated with either bMAL-II (1:2000, stock conc. 1.0 mg/mL) or bSNA (1:5000, stock conc. 2.0 mg/mL) in 0.1% PBS-T (5.0 mL) at room temperature. After 1 h, membranes were washed using 0.1% PBS-T (6×5.0 mL, 5.0 min), followed by incubation with HRPconjugated avidin (1:50000, stock conc. 2.0 mg/mL) in 0.1% PBS-T (5.0 mL). After 30 min, membranes were washed using 0.1% PBS-T (6×5.0 mL, 5.0 min). Blots were developed using enhanced chemiluminescence substrate and photographic films. Blots using anti-β-actin (as mentioned above) were performed in parallel as loading controls. At least two independent replicate experiments were performed.

HEK293 cells = settings: cited from earlier work
HL-60 cells [3] = assay: Static cell adhesion to mouse E-selectin-Fc (mCD62E) coated surfaces; type: cell-based, human; settings: HL-60 pre-incubated 50 μM, 48 h; adhesion 60 min
Procedure: Effect of ManNAc analogues on cell adhesion to E-selectin and L-selectin coated surfaces: This assay was performed in 96-well polystyrene plates under sterile conditions. The plates were prepared freshly on the day of adhesion experiments. Wells were first coated with protein-G (200 ng in 50 μL PBS per well) for 1.0 h at room temperature (RT) followed by PBS washes (2×0.1 mL). Then either recombinant mouse E-selectin-Fc chimera or L-selectin-Fc chimera (20 ng in 50 μL PBS per well) was added to the wells and plate was left undisturbed for 1.0 h at RT. Wells were aspirated and washed with PBS (2×0.1 mL) followed by blocking with 1.0% (w/v) BSA in 50 μL PBS per well for 1.0 h at RT. After blocking, the wells were washed with PBS (3×0.1 mL).
HL-60 cells (3.0×10^5 cells per mL; 2.0 mL in six well plates) were incubated with 50 μM ManNAc analogues, harvested at 48 h, washed once with serum free RPMI medium (0.5 mL), and resuspended in serum free RPMI 1640 media containing 1.5 mM CaCl2) (4.0×10^5 cells/mL in 1.0 mL). The single cell suspension was added to each well (2.0×10^4 cells in 50 μL media per well) and allowed to adhere for 1.0 h at 37° C. in a CO2 incubator. […] Images were captured at 10× magnification using Olympus IX53 fluorescence microscope. […] The images were analyzed manually and the total number of adherent cells per well for each condition were plotted.

CC(=O)OC[C@H]1O[C@H](OC(C)=O)[C@@H](NC(=O)C2CC2)[C@@H](OC(C)=O)[C@@H]1OC(C)=O [Compound 1a, 1,3,4,6-tetra-O-acetyl-2-cyclopropanoylamino-2-deoxy-α-D-mannopyranose]
increase in binding of CSLEX1 antibody (sLeX) compared to controls (HL-60 cells [1]): ~2.5 fold
SNA epitopes in lectin blot compared to controls (HL-60 cells [2]): significant reduction
increase of total sialic acid levels (HEK293 cells): two folds
share of sialic acid being modified N-cyclopropanoyl-D-neuraminic acid (HEK293 cells): more than 50%

CC(=O)OC[C@H]1OC(OC(C)=O)[C@@H](NC(=O)C2CCC2)[C@@H](OC(C)=O)[C@@H]1OC(C)=O (stereo partly drawn) [Compound 1b, (3S,4R,5S,6R)-6-(acetoxymethyl)-3-(cyclobutanecarboxamido)tetrahydro-2H-pyran-2,4,5-triyl triacetate]
increase in binding of CSLEX1 antibody (sLeX), in words (HL-60 cells [1]): nearly a four-fold increase
SNA epitopes in lectin blot compared to controls (HL-60 cells [2]): significant reduction
increase in the numbers of adhered cells on mCD62E coated surface (HL-60 cells [3]): about 40%

Source: patent publication US20240002424A1, “HEXOSAMINE COMPOUNDS AND METHODS THEREOF” (National Institute of Immunology, priority 2021, published 2024)
